MIC data for 9 compounds are collected here from DBAASP.

Among the test systems are Staphylococcus aureus; Pseudomonas aeruginosa; Micrococcus luteus; Escherichia coli; Bacillus subtilis; Bacillus megaterium Bm11; Escherichia coli D21; Streptococcus mutans.
Holding throughout (assay): ≥ marks a high value that may be exact or a test limit, other limits are often not marked, values filed in µg/mL are converted to µM
In assay [1] the test system is Batrachochytrium dendrobatidis.
Assay [2] concerns Bacillus subtilis AB91021.
The test system of assay [3] is Micrococcus luteus AB93113.
For assay [4], the system named is Staphylococcus aureus ATCC 25923.
The subject of assay [5] is Batrachochytrium dendrobatidis JEL-197.
Assay [6] concerns Escherichia coli ATCC 25726.
The test system of assay [7] is Bacillus subtilis ATCC 6633.
Assay [8] relates to Shigella flexneri ATCC 203.
Assay [9] has as its system Pseudomonas aeruginosa OT97.
The test system of assay [10] is Staphylococcus aureus JC-1.
The subject of assay [11] is Staphylococcus aureus Cowan 1.
In assay [12] the test system is Proteus vulgaris OX19 ATCC 6380.
Assay [13] deals with Lacticaseibacillus casei ATCC 4646.
Assay [14] has as its system Streptococcus sanguinis NY101.
In assay [15] the test system is Streptococcus gordonii Challis DL1.
In assay [16] the test system is Veillonella atypica PK1910.
For assay [17], the system named is Streptococcus mitis ATCC 903.
The subject of assay [18] is Candida albicans NCYC 1467.
Assay [19] relates to Staphylococcus aureus NCTC 10788.
The test system of assay [20] is Legionella pneumophila Lens.
Assay [21] relates to Streptococcus mutans UA159.
For assay [22], the system named is Pseudomonas aeruginosa PAK.
Assay [23] has as its system Burkholderia thailandensis.
Assay [24] concerns Staphylococcus aureus ATCC 29213.
In assay [25] the test system is Candida albicans ATCC 10231.
In assay [26] the test system is Klebsiella pneumoniae ATCC 13883.
In assay [27] the test system is Bacillus subtilis ATCC 9372.
Assay [28] has as its system Bacillus anthracis Sterne 34F2.

Usually MIC stands for the smallest concentration in the dilution series that meets the test's criterion for growth inhibition. A low value points to greater potency.

In brackets after ≈: the same amount, converted by molar mass. Several values for one entry are separate records, joined by “and”; a condition that tells them apart may be missing. Equal entries are not always repeated.

With `CC[C@H](C)[C@H](NC(=O)[C@H](C)NC(=O)[C@H](CO)NC(=O)[C@@H](NC(=O)[C@@H](N)Cc1ccccc1)[C@@H](C)CC)C(=O)N[C@@H](C)C(=O)N[C@@H](CO)C(=O)N[C@@H](CCSC)C(=O)N[C@@H](CC(C)C)C(=O)NCC(=O)N[C@@H](CCCCN)C(=O)N[C@@H](Cc1ccccc1)C(=O)N[C@@H](CC(C)C)C(N)=O` [FISAIASMLGKFL], the minimum inhibitory concentration (MIC) in the assay with Staphylococcus aureus was 100 µM (≈ 140 µg/mL); in assay [1], at least 100 µM.
For `CC[C@H](C)[C@H](NC(=O)[C@H](C)NC(=O)[C@H](CO)NC(=O)[C@@H]1CCCN1C(=O)[C@@H](NC(=O)[C@H](CC(C)C)NC(=O)[C@H](CO)NC(=O)[C@H](Cc1ccccc1)NC(=O)[C@H](CC(C)C)NC(=O)[C@@H](N)Cc1ccccc1)[C@@H](C)CC)C(=O)N[C@@H](CO)C(=O)NCC(=O)N[C@@H](CC(C)C)C(=O)N[C@H](C(=O)N[C@@H](CO)C(=O)N[C@@H](C)C(=O)N[C@@H](Cc1ccccc1)C(=O)N[C@@H](CCCCN)C(N)=O)[C@@H](C)CC` [FLFSLIPSAISGLISAFK], the MIC in assay [2] is 25.5 µM (≈ 48.7 µg/mL); in the assay on Staphylococcus aureus it was 8.37 µM (≈ 16 µg/mL); in the assay with Pseudomonas aeruginosa, 47.5 µM; against Micrococcus luteus, at least 42.6 µM; in assay [3] it was at least 42.6 µM; in the assay with Escherichia coli it was 9.47 µM and 9.5 µM. The MIC in the assay on Bacillus subtilis is 25.5 µM (≈ 48.8 µg/mL).
In the case of `CC[C@H](C)[C@H](NC(=O)CN)C(=O)N[C@@H](CC(C)C)C(=O)N[C@@H](CC(=O)O)C(=O)N[C@H](C(=O)N[C@@H](Cc1ccccc1)C(=O)N[C@@H](CCCCN)C(=O)NCC(=O)N[C@H](C(=O)N[C@@H](C)C(=O)N[C@@H](CCCCN)C(=O)NCC(=O)N[C@H](C(=O)N[C@@H](C)C(=O)N[C@@H](CCCCN)C(=O)N[C@@H](CC(=O)O)C(=O)N[C@@H](CC(C)C)C(=O)N[C@@H](C)C(=O)N[C@H](C(=O)N[C@@H](Cc1cnc[nH]1)C(=O)N[C@@H](CCSC)C(=O)N[C@@H](CC(C)C)C(=O)N[C@@H](CCC(=O)O)C(=O)N[C@@H](CCCCN)C(=O)N[C@@H](CC(C)C)C(=O)N[C@@H](CCCCN)C(=O)N[C@H]1CSSC[C@@H](C(=O)O)NC(=O)CNC(=O)[C@H]([C@@H](C)O)NC(=O)[C@H](CCSC)NC(=O)[C@H](CCCCN)NC1=O)C(C)C)C(C)C)C(C)C)[C@@H](C)O` [GILDTFKGVAKGVAKDLAVHMLEKLKCKMTGC], the values for the MIC in assay [4], in assay [5] and in assay [6] were 40 µM (≈ 136 µg/mL), 25 µM (≈ 85.1 µg/mL) and at least 40 µM, respectively.
As to `CC[C@H](C)[C@H](NC(=O)[C@H](CCCCN)NC(=O)[C@@H](NC(=O)[C@@H](NC(=O)[C@H](CCC(N)=O)NC(=O)CNC(=O)[C@H](Cc1cnc[nH]1)NC(=O)[C@H](CCC(N)=O)NC(=O)[C@H](CC(N)=O)NC(=O)[C@H](CCC(N)=O)NC(=O)[C@@H](NC(=O)[C@@H](N)CCCCN)C(C)C)C(C)C)C(C)C)C(=O)N[C@@H](Cc1ccccc1)C(=O)N[C@@H](Cc1cnc[nH]1)C(=O)N[C@@H](Cc1cnc[nH]1)C(=O)O` [KVQNQHGQVVKIFHH], the minimum inhibitory concentration (MIC) is at least 800 µM in assay [7]; at least 1600 µM in the assay on Bacillus megaterium Bm11; at least 3.2 mM in the assay with Escherichia coli D21; at least 800 µM in assay [8]; at least 6 mM in [9]; at least 800 µM in [10]. In addition, the MIC in [11] and in assay [12] was at least 6 mM each time.
As to `CC(C)C[C@H](NC(=O)[C@H](Cc1ccccc1)NC(=O)[C@H](CCCN=C(N)N)NC(=O)[C@H](CCCCN)NC(=O)[C@@H](N)CC(C)C)C(=O)N[C@@H](CCCCN)C(=O)N[C@@H](Cc1c[nH]c2ccccc12)C(=O)N[C@@H](Cc1ccccc1)C(=O)N[C@@H](CCCCN)C(=O)N[C@@H](CCCN=C(N)N)C(=O)N[C@@H](Cc1ccccc1)C(N)=O` [LKRFLKWFKRF], the MIC is 10.2 µM (≈ 16 µg/mL) in [13]; 10.2 µM (≈ 16 µg/mL) in assay [14]; 20.4 µM (≈ 32 µg/mL) in assay [15]; 20.4 µM (≈ 32 µg/mL) in assay [16]; 8.83 µM (≈ 13.8 µg/mL) in the assay on Streptococcus mutans; at least 40.8 µM in [17].
As to `CC[C@H](C)[C@H](NC(=O)[C@H](C)NC(=O)[C@H](CO)NC(=O)[C@@H](NC(=O)[C@H](C)NC(=O)[C@H](CC(C)C)NC(=O)[C@@H]1CCCN1C(=O)[C@@H](NC(=O)[C@H](CCSC)NC(=O)CNC(=O)[C@H](CC(C)C)NC(=O)[C@@H](N)CC(C)C)[C@@H](C)CC)[C@@H](C)CC)C(=O)N[C@@H](CO)C(=O)N[C@@H](C)C(=O)N[C@@H](CC(C)C)C(=O)N[C@@H](CO)C(=O)N[C@@H](CCCCN)C(=O)N[C@@H](CC(C)C)C(N)=O` [LLGMIPLAISAISALSKL], the minimal inhibitory concentration (MIC) in [1] is at least 100 µM; in assay [4] it was 8 µM (≈ 14.5 µg/mL); in assay [18], 17.7 µM (≈ 32 µg/mL); in assay [19], 4.42 µM (≈ 8 µg/mL); in assay [6] it was at least 128 µM.
As for `CC[C@H](C)[C@H](NC(=O)[C@H](CC(C)C)NC(=O)[C@H](CC(=O)O)NC(=O)[C@@H](NC(=O)[C@@H](NC(=O)[C@H](Cc1ccccc1)NC(=O)[C@H](CCC(N)=O)NC(=O)[C@@H](N)CCSC)[C@@H](C)CC)[C@@H](C)O)C(=O)NCC(=O)N[C@@H](CCCCN)C(=O)N[C@@H](C)C(=O)N[C@H](C(=O)N[C@@H](CC(=O)O)C(=O)N[C@@H](Cc1ccccc1)C(=O)N[C@@H](Cc1ccccc1)C(=O)N[C@@H](CCCCN)C(=O)NCC(=O)N[C@@H](CC(C)C)C(=O)N[C@@H](Cc1ccccc1)C(=O)N[C@@H](CC(=O)O)C(=O)N[C@@H](CC(N)=O)C(=O)N[C@@H](CCCCN)C(=O)O)C(C)C` [MQFITDLIGKAVDFFKGLFDNK], the MIC in assay [20] was found to be 19.6 µM (≈ 49.9 µg/mL).
As to `NC(=O)[C@H](Cc1ccccc1)NC(=O)[C@H](Cc1c[nH]c2ccccc12)NC(=O)[C@H](CCCN=C(N)N)NC(=O)[C@H](Cc1c[nH]c2ccccc12)NC(=O)[C@H](CCCN=C(N)N)NC(=O)[C@H](Cc1c[nH]c2ccccc12)NC(=O)[C@@H](N)CCCN=C(N)N` [RWRWRWF], the MIC against Staphylococcus aureus amounted to 26.8 µM (≈ 32 µg/mL); in assay [13], 26.8 µM (≈ 32 µg/mL); in assay [14], 26.8 µM (≈ 32 µg/mL); in assay [21] it was 4.74 µM (≈ 5.65 µg/mL); in assay [15] it was 26.8 µM (≈ 32 µg/mL); in assay [22], 26.8 µM (≈ 32 µg/mL). In addition, the minimum inhibitory concentration (MIC) in assay [16] is at least 53.7 µM; in [17], 26.8 µM (≈ 32 µg/mL).
Take `CC[C@H](C)[C@H](NC(=O)[C@H](C)NC(=O)[C@@H](N)C(C)C)C(=O)N[C@@H](C)C(=O)N[C@@H](CC(C)C)C(=O)N[C@@H](CCCCN)C(=O)N[C@@H](C)C(=O)N[C@@H](C)C(=O)N[C@@H](Cc1cnc[nH]1)C(=O)N[C@@H](Cc1ccc(O)cc1)C(=O)N[C@@H](Cc1cnc[nH]1)C(=O)N[C@H](C(=O)N[C@@H](Cc1cnc[nH]1)C(=O)N[C@@H](CCCCN)C(=O)N[C@@H](CCC(=O)O)C(=O)O)[C@@H](C)O` [VAIALKAAHYHTHKE]: the MIC in [23] is at least 50 µM; in [24], 75.8 µM (≈ 128 µg/mL); in [25], 0.592 µM (≈ 1 µg/mL); in assay [26] it was at least 75.8 µM; in [27] it was at least 100 µM; in assay [28] it was at least 100 µM.
